Data: PubChem BioAssay AID1963864 (Molecular Pharmacology Branch, DTP, NCI, 2024)

Test system: KRAS PDC multicell spheroid viability
Experiment: Anticancer human tumor 521955-158-R6-J3-PDC patient-derived pancreatic carcinoma cell line growth inhibition [KRAS2]
Settings: for IC50: curve of first compound; for viability, T/C: stronger effect = lower value
Method in brief: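 KRAS-mutant tumor cells were grown as spheroids with HUVEC endothelial cells and human MSCs as stroma. Targeted agents were tested alone and with KRAS pathway inhibitors. Doses started at or near clinical Cmax, or 10 microM, descending half-log.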

[1] = second compound 0.1 µM, first compound 0.0316 µM
[2] = second compound 0.1 µM, first compound 0.1 µM
[3] = second compound 0.1 µM, first compound 0.316 µM
[4] = second compound 0.1 µM, first compound 1 µM
[5] = second compound 0.1 µM, first compound 3.16 µM
[6] = second compound 0.316 µM, first compound 0.0316 µM
[7] = second compound 0.316 µM, first compound 0.1 µM
[8] = second compound 0.316 µM, first compound 0.316 µM
[9] = second compound 0.316 µM, first compound 1 µM
[10] = second compound 0.316 µM, first compound 3.16 µM
[11] = second compound 1 µM, first compound 0.0316 µM
[12] = second compound 1 µM, first compound 0.1 µM
[13] = second compound 1 µM, first compound 0.316 µM
[14] = second compound 1 µM, first compound 1 µM
[15] = second compound 1 µM, first compound 3.16 µM
[16] = second compound 3.16 µM, first compound 0.0316 µM
[17] = second compound 3.16 µM, first compound 0.1 µM
[18] = second compound 3.16 µM, first compound 0.316 µM
[19] = second compound 3.16 µM, first compound 1 µM
[20] = second compound 3.16 µM, first compound 3.16 µM
[21] = second compound 10 µM, first compound 0.0316 µM
[22] = second compound 10 µM, first compound 0.1 µM
[23] = second compound 10 µM, first compound 0.316 µM
[24] = second compound 10 µM, first compound 1 µM
[25] = second compound 10 µM, first compound 3.16 µM
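Also: drug exposure lasted seven days.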
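For viability, T/C in this document: 100% = DMSO vehicle wells and lower means fewer viable cells.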

SMILES	IC50 (second compound 0.1 µM)	IC50 (second compound 0.316 µM)	IC50 (second compound 1 µM)	IC50 (second compound 3.16 µM)	IC50 (second compound 10 µM)	viability, T/C [1]	viability, T/C [2]	viability, T/C [3]	viability, T/C [4]	viability, T/C [5]	viability, T/C [6]	viability, T/C [7]	viability, T/C [8]	viability, T/C [9]	viability, T/C [10]	viability, T/C [11]	viability, T/C [12]	viability, T/C [13]	viability, T/C [14]	viability, T/C [15]	also measured
COC(=O)c1ccc2c(C(=Nc3ccc(N(C)C(=O)CN4CCN(C)CC4)cc3)c3ccccc3)c(O)[nH]c2c1 + COc1cc2nc(C)nc(NC(C)c3cc(N)cc(C(F)(F)F)c3)c2cc1OC1CCOC1	3.01 µM	3.53 µM	2.41 µM	1.72 µM	< 0.0316 µM	90%	95.7%	107%	115%	47.6%	93.9%	90.3%	91.4%	122%	55.2%	84%	94.4%	107%	115%	34.5%	viability, T/C (second compound 0.1 µM, first compound 10 µM): 0.24%; viability, T/C (second compound 0.316 µM, first compound 10 µM): 0.21%; viability, T/C (second compound 1 µM, first compound 10 µM): 1.78%; viability, T/C [16]: 75.8%; viability, T/C [17]: 75.5%; viability, T/C [18]: 108%; viability, T/C [19]: 101%; viability, T/C [20]: 4.81%; viability, T/C (second compound 3.16 µM, first compound 10 µM): 0.15%; viability, T/C [21]: 42%; viability, T/C [22]: 29.7%; viability, T/C [23]: 6.94%; viability, T/C [24]: 2.96%; viability, T/C [25]: 2.48%; viability, T/C (second compound 10 µM, first compound 10 µM): 0.99%
CC(=O)OC12COC1CC(O)C1(C)C(=O)C(O)C3=C(C)C(OC(=O)C(O)C(NC(=O)OC(C)(C)C)c4ccccc4)CC(O)(C(OC(=O)c4ccccc4)C21)C3(C)C (stereo not given) + CC1OCC2(CCN(c3cnc(Sc4ccnc(N)c4Cl)c(N)n3)CC2)C1N	> 3.16 µM	> 3.16 µM	> 3.16 µM	> 3.16 µM	> 3.16 µM	65.4%	74.1%	76.1%	95.5%	114%	84.2%	72.5%	74.9%	87.8%	108%	83.4%	69.7%	78.6%	96.7%	114%	viability, T/C (second compound 0.1 µM, first compound 0.01 µM): 82.9%; viability, T/C (second compound 0.316 µM, first compound 0.01 µM): 83%; viability, T/C (second compound 1 µM, first compound 0.01 µM): 79.8%; viability, T/C (second compound 3.16 µM, first compound 0.01 µM): 88.7%; viability, T/C [16]: 86.6%; viability, T/C [17]: 87.3%; viability, T/C [18]: 94.4%; viability, T/C [19]: 106%; viability, T/C [20]: 109%; viability, T/C (second compound 10 µM, first compound 0.01 µM): 99.7%; viability, T/C [21]: 88.9%; viability, T/C [22]: 95%; viability, T/C [23]: 99%; viability, T/C [24]: 96.1%; viability, T/C [25]: 118%
